Measurements from PubChem BioAssay AID1259407 (Chemical Carcinogenesis Research Information System (CCRIS), 2018).
Activity calls are given as the source filed them. No rule for the calls is given here.

System: CCRIS mutagenicity, Ames/micronucleus/aberration tests
Test: CCRIS mutagenicity studies
[1] = Test System: AMES SALMONELLA TYPHIMURIUM, Strain/Indicator: TA98, Metabolic Activation: NONE, Method: STANDARD PLATE
[2] = Test System: AMES SALMONELLA TYPHIMURIUM, Strain/Indicator: TA100, Metabolic Activation: NONE, Method: STANDARD PLATE
[3] = Test System: AMES SALMONELLA TYPHIMURIUM, Strain/Indicator: TA98, Metabolic Activation: NONE, Method: PREINCUBATION
[4] = Test System: AMES SALMONELLA TYPHIMURIUM, Strain/Indicator: TA100, Metabolic Activation: NONE, Method: PREINCUBATION
[5] = Test System: AMES SALMONELLA TYPHIMURIUM, Strain/Indicator: TA102, Metabolic Activation: NONE, Method: STANDARD PLATE

COC(=O)Nc1nc2ccc(C(=O)c3ccc(F)cc3)cc2[nH]1
mutagenic call [1]: inactive; negative | mutagenic call (Test System: AMES SALMONELLA TYPHIMURIUM, Strain/Indicator: TA98, Metabolic Activation: RAT, LIVER, S-9, AROCLOR 1254, Method: STANDARD PLATE): inactive; negative | mutagenic call [2]: inactive; negative | mutagenic call (Test System: AMES SALMONELLA TYPHIMURIUM, Strain/Indicator: TA100, Metabolic Activation: RAT, LIVER, S-9, AROCLOR 1254, Method: STANDARD PLATE): inactive; negative

CCCCCCCC(=O)Cl
mutagenic call (Test System: AMES SALMONELLA TYPHIMURIUM, Strain/Indicator: TA98, Metabolic Activation: HAMSTER, LIVER, S-9, AROCLOR 1254 (30%), Method: PREINCUBATION): inactive; negative | mutagenic call [3]: inactive; negative | mutagenic call (Test System: AMES SALMONELLA TYPHIMURIUM, Strain/Indicator: TA98, Metabolic Activation: RAT, LIVER, S-9, AROCLOR 1254 (30%), Method: PREINCUBATION): inactive; negative | mutagenic call (Test System: AMES SALMONELLA TYPHIMURIUM, Strain/Indicator: TA100, Metabolic Activation: HAMSTER, LIVER, S-9, AROCLOR 1254 (5%), Method: PREINCUBATION): active; positive | mutagenic call (Test System: AMES SALMONELLA TYPHIMURIUM, Strain/Indicator: TA100, Metabolic Activation: HAMSTER, LIVER, S-9, AROCLOR 1254 (10 OR 30%), Method: PREINCUBATION): inactive; negative | mutagenic call (Test System: AMES SALMONELLA TYPHIMURIUM, Strain/Indicator: TA100, Metabolic Activation: HAMSTER, LIVER, S-9, AROCLOR 1254 (30%), Method: PREINCUBATION): active; positive | mutagenic call [4]: inactive; negative | mutagenic call (Test System: AMES SALMONELLA TYPHIMURIUM, Strain/Indicator: TA100, Metabolic Activation: RAT, LIVER, S-9, AROCLOR 1254 (5 OR 10%), Method: PREINCUBATION): inactive; negative | mutagenic call (Test System: AMES SALMONELLA TYPHIMURIUM, Strain/Indicator: TA100, Metabolic Activation: RAT, LIVER, S-9, AROCLOR 1254 (30%), Method: PREINCUBATION): inactive; negative | mutagenic call (Test System: AMES SALMONELLA TYPHIMURIUM, Strain/Indicator: TA1535, Metabolic Activation: HAMSTER, LIVER, S-9, AROCLOR 1254 (5, 10 OR 30%), Method: PREINCUBATION): inactive; negative | mutagenic call (Test System: AMES SALMONELLA TYPHIMURIUM, Strain/Indicator: TA1535, Metabolic Activation: RAT, LIVER, S-9, AROCLOR 1254 (5, 10 OR 30%), Method: PREINCUBATION): inactive; negative

CCN(CCCl)c1ccc(CCCNc2c3ccccc3nc3ccccc23)cc1
mutagenic call (Test System: AMES SALMONELLA TYPHIMURIUM, Strain/Indicator: DG1588, Metabolic Activation: NONE, Method: STANDARD PLATE): inactive; negative | mutagenic call (Test System: AMES SALMONELLA TYPHIMURIUM, Strain/Indicator: DG1592, Metabolic Activation: NONE, Method: STANDARD PLATE): inactive; negative | mutagenic call (Test System: AMES SALMONELLA TYPHIMURIUM, Strain/Indicator: DG1593, Metabolic Activation: NONE, Method: STANDARD PLATE): active; positive | mutagenic call [1]: active; positive | mutagenic call [2]: active; positive | mutagenic call [5]: inactive; negative | mutagenic call (Test System: AMES SALMONELLA TYPHIMURIUM, Strain/Indicator: TA104, Metabolic Activation: NONE, Method: STANDARD PLATE): active; positive | mutagenic call (Test System: AMES SALMONELLA TYPHIMURIUM, Strain/Indicator: TA1535, Metabolic Activation: NONE, Method: STANDARD PLATE): inactive; negative | mutagenic call (Test System: AMES SALMONELLA TYPHIMURIUM, Strain/Indicator: TA1537 (PKM101), Metabolic Activation: NONE, Method: STANDARD PLATE): active; positive | mutagenic call (Test System: AMES SALMONELLA TYPHIMURIUM, Strain/Indicator: TA1537, Metabolic Activation: NONE, Method: STANDARD PLATE): active; positive | mutagenic call (Test System: AMES SALMONELLA TYPHIMURIUM, Strain/Indicator: TA1538, Metabolic Activation: NONE, Method: STANDARD PLATE): inactive; negative | mutagenic call (Test System: AMES SALMONELLA TYPHIMURIUM, Strain/Indicator: TA1975 (PKM101), Metabolic Activation: NONE, Method: STANDARD PLATE): inactive; negative | mutagenic call (Test System: AMES SALMONELLA TYPHIMURIUM, Strain/Indicator: TA1975, Metabolic Activation: NONE, Method: STANDARD PLATE): inactive; negative | mutagenic call (Test System: AMES SALMONELLA TYPHIMURIUM, Strain/Indicator: TA1977, Metabolic Activation: NONE, Method: STANDARD PLATE): active; positive | mutagenic call (Test System: AMES SALMONELLA TYPHIMURIUM, Strain/Indicator: TA1978 (PKM101), Metabolic Activation: NONE, Method: STANDARD PLATE): active; positive | mutagenic call (Test System: AMES SALMONELLA TYPHIMURIUM, Strain/Indicator: TA1978, Metabolic Activation: NONE, Method: STANDARD PLATE): inactive; negative | mutagenic call (Test System: AMES SALMONELLA TYPHIMURIUM, Strain/Indicator: TA4001, Metabolic Activation: NONE, Method: STANDARD PLATE): active; positive | mutagenic call (Test System: AMES SALMONELLA TYPHIMURIUM, Strain/Indicator: TA4006, Metabolic Activation: NONE, Method: STANDARD PLATE): active; positive

CS(=O)CCCC/C(=N\OS(=O)(=O)O)S[C@@H]1O[C@H](CO)[C@@H](O)[C@H](O)[C@H]1O (stereo partly drawn)
mutagenic call (End Point: IN VITRO MICRONUCLEUS, Test System: HUMAN T-LYMPHOCYTES, Metabolic Activation: NONE): inactive; negative

O=S(=O)(O)c1ccc2c(N=Nc3ccccc3)c(O)ccc2c1
mutagenic call [3]: inactive; negative | mutagenic call (Test System: AMES SALMONELLA TYPHIMURIUM, Strain/Indicator: TA98, Metabolic Activation: RAT, LIVER, S-9, PHENOBARBITAL, Method: PREINCUBATION): inactive; negative | mutagenic call [4]: inactive; negative | mutagenic call (Test System: AMES SALMONELLA TYPHIMURIUM, Strain/Indicator: TA100, Metabolic Activation: RAT, LIVER, S-9, PHENOBARBITAL, Method: PREINCUBATION): inactive; negative

CCc1cc(C(C)(C)C)c(O)c(C(C)(C)C)c1
mutagenic call (Test System: AMES SALMONELLA TYPHIMURIUM, Strain/Indicator: TA97, Metabolic Activation: NONE, Method: STANDARD PLATE): inactive; negative | mutagenic call (Test System: AMES SALMONELLA TYPHIMURIUM, Strain/Indicator: TA97, Metabolic Activation: S-9, Method: STANDARD PLATE): inactive; negative | mutagenic call [1]: inactive; negative | mutagenic call (Test System: AMES SALMONELLA TYPHIMURIUM, Strain/Indicator: TA98, Metabolic Activation: S-9, Method: STANDARD PLATE): inactive; negative | mutagenic call [2]: inactive; negative | mutagenic call (Test System: AMES SALMONELLA TYPHIMURIUM, Strain/Indicator: TA100, Metabolic Activation: S-9, Method: STANDARD PLATE): inactive; negative | mutagenic call [5]: inactive; negative | mutagenic call (Test System: AMES SALMONELLA TYPHIMURIUM, Strain/Indicator: TA102, Metabolic Activation: S-9, Method: STANDARD PLATE): inactive; negative | mutagenic call (Test System: E.COLI, Strain/Indicator: WP2 (PKM101), Metabolic Activation: NONE, Method: STANDARD PLATE): inactive; negative | mutagenic call (Test System: E.COLI, Strain/Indicator: WP2 (PKM101), Metabolic Activation: S-9, Method: STANDARD PLATE): inactive; negative
